Literature values in patent publication US20100227830A1, “USE OF ESCIN” (MARINOMED BIOTECHNOLOGIE GMBH, priority 2006, published 2010).

System: nuclear factor-KB (NF-κB)
Conditions: after traumatic brain injury in rats

β-escin
NF-κB expression level in tissue: significant reduction of NF-κB expression level
